± gives the standard deviation of the averaged measurements.
Tests used:
Conditions in all cases: 72 h
[1] = system: Caco-2; experiment: cell viability relative to DMSO; higher = less toxic
[2] = system: Calu-3; experiment: as above
[3] = system: Vero E6; experiment: as above
[4] = system: HepG2; experiment: as above
[5] = system: U2OS; experiment: as above
[6] = system: Calu-3; experiment: relative viability EC50 (midpoint between 100% and the lowest measured viability); higher = less toxic
[7] = system: Vero E6; experiment: as above
[8] = system: HepG2; experiment: as above
[9] = system: U2OS; experiment: as above
[10] = system: Caco-2; experiment: drug sensitivity score (DSS) for viability; higher = more toxic; extreme values may be limits of the assay
[11] = system: Calu-3; experiment: as above
[12] = system: Vero E6; experiment: as above
[13] = system: HepG2; experiment: as above
[14] = system: U2OS; experiment: as above
[15] = system: Caco-2; experiment: relative viability EC50 (midpoint between 100% and the lowest measured viability); higher = less toxic

| Compound | cell viability ([1]; 1 nM) [%] | cell viability ([1]; 10 nM) [%] | cell viability ([1]; 100 nM) [%] | cell viability ([1]; 1000 nM) [%] | cell viability ([1]; 10000 nM) [%] | cell viability ([2]; 1 nM) [%] | cell viability ([2]; 10 nM) [%] | cell viability ([2]; 100 nM) [%] | cell viability ([2]; 1000 nM) [%] | cell viability ([2]; 10000 nM) [%] | cell viability ([3]; 1 nM) [%] | cell viability ([3]; 10 nM) [%] | cell viability ([3]; 100 nM) [%] | cell viability ([3]; 1000 nM) [%] | cell viability ([3]; 10000 nM) [%] | cell viability ([4]; 1 nM) [%] | cell viability ([4]; 10 nM) [%] | cell viability ([4]; 100 nM) [%] | cell viability ([4]; 1000 nM) [%] | cell viability ([4]; 10000 nM) [%] | cell viability ([5]; 1 nM) [%] | cell viability ([5]; 10 nM) [%] | cell viability ([5]; 100 nM) [%] | cell viability ([5]; 1000 nM) [%] | cell viability ([5]; 10000 nM) [%] | relative viability EC50 [6] [µM] | relative viability EC50 [7] [µM] | relative viability EC50 [8] [µM] | relative viability EC50 [9] [µM] | drug sensitivity score [10] | drug sensitivity score [11] | drug sensitivity score [12] | drug sensitivity score [13] | drug sensitivity score [14] | relative viability EC50 [15] [µM] |
| --- | --- | --- | --- | --- | --- | --- | --- | --- | --- | --- | --- | --- | --- | --- | --- | --- | --- | --- | --- | --- | --- | --- | --- | --- | --- | --- | --- | --- | --- | --- | --- | --- | --- | --- | --- |
| NCCCCN=C(N)N [agmatine] | 114 | 82.8 | 92.5 | 82.5 | 72.2 | 94.8 | 95.7 | 93.2 | 89.4 | 99.9 | 103 | 97.6 | 97.4 | 104 | 88.6 | 95.5 | 96.6 | 99.4 | 110 | 94.7 | 103 | 96.3 | 100 | 100 | 99.2 | > 10 | > 10 | > 10 | > 10 | 3.4 | 0 | 0 | 0 | 0 | – |
| CC(=O)Oc1ccc(C(c2ccc(OC(C)=O)cc2)c2ccccn2)cc1 [bisacodyl] | 92.8 | 84.9 | 107 | 80.5 | 60.3 | 111 | 105 | 102 | 99.2 | 88.2 | 99.6 | 94.1 | 97.1 | 95.7 | 80.7 | 98.3 | 99.5 | 104 | 95.1 | 100 | 101 | 102 | 100 | 89.9 | 87.3 | > 10 | > 10 | > 10 | > 10 | 4.4 | 0.1 | 1 | 0 | 0.6 | – |
| CO[C@@H](C(=O)N1Cc2[nH]nc(NC(=O)c3ccc(N4CCN(C)CC4)cc3)c2C1)c1ccccc1 [danusertib] | 94.7 | 95.4 | 94.9 | 82.9 | 71.7 | 89 | 93.8 | 77.1 | 76.9 | 52.9 | 104 | 101 | 104 | 98.6 | 84.2 | 93.4 | 95.9 | 78.3 | 55.8 | 42.6 | 99.6 | 103 | 93.9 | 74.8 | 31 | – | > 10 | 0.192 | 1.35 | 2.9 | 7.5 | 0.4 | 10.7 | 6.8 | – |
| Cc1cc(C)cc(NC(=O)Cc2ccc(OC(C)(C)C(=O)O)cc2)c1 [efaproxiral] | – | – | – | – | – | 98.6 | 103 | 104 | 101 | 105 | 98.5 | 97.5 | 101 | 101 | 98.2 | 107 | 107 | 104 | 101 | 96.4 | 97.7 | 95.7 | 98.9 | 93.5 | 94.3 | > 10 | > 10 | > 10 | > 10 | – | 0 | 0 | 0 | 0 | – |
| N#Cc1nn(-c2c(Cl)cc(C(F)(F)F)cc2Cl)c(N)c1[S+]([O-])C(F)(F)F (stereo unspecified) [fipronil] | 103 | 105 | 102 | 96.7 | 94.1 | 99.3 | 92 | 102 | 103 | 102 | 106 | 102 | 99.2 | 101 | 102 | 98.2 | 109 | 97.8 | 91.1 | 103 | – | – | – | – | – | > 10 | > 10 | > 10 | – | 0 | 0 | 0 | 0 | – | > 10 |
| CCCCN(CCCC)CCC(O)c1cc2c(Cl)cc(Cl)cc2c2cc(C(F)(F)F)ccc12 (stereo unspecified) [halofantrine] | 95 | 122 | 104 | 106 | 88.7 | 90.1 | 93.3 | 103 | 109 | 88.1 | 109 | 103 | 99.9 | 83.3 | 83.8 | 95.5 | 82.1 | 97.4 | 92.1 | 71.8 | 95.2 | 102 | 99.5 | 96.3 | 88 | > 10 | > 10 | – | > 10 | 0 | 0 | 1.9 | 2.1 | 0.2 | > 10 |
| COc1ccc(-c2cc(=O)c3c(OC)c(OC)c(OC)c(OC)c3o2)cc1OC [nobiletin] | 86.4 | 99.4 | 100 | 95.3 | 80.9 | 99.5 | 111 | 106 | 104 | 83.8 | 102 | 104 | 94.5 | 93.5 | 91.6 | 96.9 | 108 | 102 | 83.2 | 68.6 | 94.4 | 103 | 94 | 99.7 | 92.3 | > 10 | > 10 | – | > 10 | 1.1 | 0.2 | 0 | 3.4 | 0 | > 10 |
| CCC[C@H](N[C@@H](C)C(=O)N1[C@H](C(=O)O)C[C@@H]2CCCC[C@@H]21)C(=O)OCC [perindopril] | 107 | 99.9 | 94.4 | 101 | 99.5 | 97 | 86.8 | 93.1 | 90.1 | 102 | 99.4 | 105 | 98.1 | 97.3 | 98.8 | 99.1 | 105 | 95.8 | 97.2 | 92.4 | – | – | – | – | – | > 10 | > 10 | > 10 | – | 0 | 0 | 0 | 0 | – | > 10 |
| Cc1ccc(=O)n(-c2ccccc2)c1 [pirfenidone] | 99.3 | 93.6 | 102 | 99.7 | 100 | 103 | 95.3 | 107 | 103 | 109 | 107 | 104 | 105 | 103 | 100 | 91.7 | 100 | 106 | 98.8 | 104 | – | – | – | – | – | > 10 | > 10 | > 10 | – | 0 | 0 | 0 | 0 | – | > 10 |
| CC(C)(C)C(=O)OCOC(=O)[C@@H]1N2C(=O)[C@@H](NC(=O)[C@H](N)c3ccccc3)[C@H]2SC1(C)C [pivampicillin] | – | – | – | – | – | 110 | 108 | 97.7 | 98.4 | 117 | 103 | 104 | 101 | 99.4 | 102 | 114 | 97.7 | 91.9 | 82 | 96.9 | 98.4 | 94 | 101 | 93.3 | 97.6 | > 10 | > 10 | > 10 | > 10 | – | 0 | 0 | 0.2 | 0 | – |
| O=[N+]([O-])c1cn2c(n1)OC[C@@H](OCc1ccc(OC(F)(F)F)cc1)C2 [pretomanid] | 98.3 | 100 | 102 | 99.3 | 92.6 | 101 | 96.5 | 96.4 | 112 | 103 | 111 | 97.6 | 103 | 95.8 | 102 | 106 | 103 | 102 | 96.3 | 100 | – | – | – | – | – | > 10 | > 10 | > 10 | – | 0 | 0 | 0 | 0 | – | > 10 |
| O=C(O)CCn1c2c(c3ccccc31)C[C@H](NS(=O)(=O)c1ccc(F)cc1)CC2 [ramatroban] | – | – | – | – | – | 92.4 | 97.7 | 94.1 | 104 | 101 | 98 | 95.7 | 92.4 | 97.4 | 104 | 104 | 95.6 | 103 | 93.6 | 110 | 100 | 98.4 | 95.8 | 101 | 104 | > 10 | > 10 | > 10 | > 10 | – | 0 | 0 | 0 | 0 | – |
| C[C@@]1(C(=O)O)NCCc2cc(O)c(O)cc21 [salsolinol-1-carboxylic-acid] | 103 | 101 | 97.4 | 109 | 106 | 98.9 | 105 | 103 | 106 | 107 | 100 | 95.2 | 94.8 | 92.2 | 104 | 100 | 106 | 95 | 94.3 | 107 | – | – | – | – | – | > 10 | > 10 | > 10 | – | 0 | 0 | 0 | 0 | – | > 10 |
| CC1=C(/C=C/C(C)=C/C=C/C(C)=C/C(=O)O)C(C)(C)CCC1 [tretinoin] | 103 ± 8.2 | 102 ± 10 | 97.5 ± 1.4 | 101 ± 1.9 | 74.5 ± 18 | 106 ± 6.3 | 97.7 ± 1.7 | 106 ± 3.3 | 87.5 ± 2.5 | 85.4 ± 4.5 | 102 ± 5.2 | 101 ± 1.9 | 99.7 ± 3.3 | 98.3 ± 2.1 | 101 ± 1.9 | 99.8 ± 2.9 | 102 ± 7 | 109.5 ± 0.64 | 101 ± 3.5 | 103 ± 6.5 | 98.8 ± 0.28 | 95.3 ± 4 | 94.3 ± 2.3 | 95.6 ± 0.57 | 90.7 ± 0.85 | > 10 | > 10 | > 10 | > 10 | 0.9 ± 1.1 | 1.2 ± 0.28 | 0 | 0 | 0 | – |
| C[C@]12CC[C@H]3[C@@H](CC[C@@]45O[C@@H]4C(O)=C(C#N)C[C@]35C)[C@@H]1CC[C@@H]2O [trilostane] | 105 | 92.9 | 99.9 | 97.6 | 99.3 | – | – | – | – | – | 91.3 | 98.5 | 92.8 | 92.4 | 102 | – | – | – | – | – | 98.8 | 103 | 105 | 105 | 97.9 | – | > 10 | – | > 10 | 0 | – | 0 | – | 0 | > 10 |
| FC(F)(F)c1cccc(C2=CCN(CCc3ccc4ccccc4c3)CC2)c1 [xaliproden] | 106 | 88.6 | 89 | 104 | 107 | 109 | 105 | 95.5 | 109 | 95.9 | 100 | 89.7 | 92.7 | 92.7 | 104 | – | – | – | – | – | 98.4 | 96.3 | 99.5 | 105 | 111 | > 10 | > 10 | – | > 10 | 0 | 0 | 0 | – | 0 | > 10 |

Source: the supplement of paper PMC13380429
